These results are taken from patent publication US20030013660A1, “Dioxolane analogs for improved inter-cellular delivery” (Shire BioChem Inc., priority 2000, published 2003).

Data set [1] relates to H-460. Nature of the data set: MTT assay at 72 hr (24 hr drug exposure, wash, 48 hr). In kind it is cell-based. How it is done: (§1) Exposition of 24hr to drug, washed, and incubated for another 48hr (total of 72hr assay)
In general terms: Tetrazolium assays rely on reduction of a dye to a coloured formazan, in cell work by metabolically active cells.

For data set [2], the system named is MCF-7. Described as above. In kind it is cell-based. Particulars: Homo sapiens, MCF7, read-out: IC50 MCF-7 24 h, Average, MTT at 72 hr, Average of the experiments. How it is done: as §1
The test system of data set [3] is SF-268. Described as above. In kind it is cell-based. Conditions: Homo sapiens, SF-268, read-out: IC50 SF-268 24 h, Average, MTT at 72 hr, Average of the experiments. How it is done: as §1
The subject of data set [4] is H-460. In words: 3H-TdR (3H-thymidine) incorporation assay at 72 hr. In kind it is cell-based, Human.
The test system of data set [5] is SF-268. In words: 3H-TdR (3H-thymidine) incorporation assay at 72 hr. In kind it is cell-based, Human.
The subject of data set [6] is CEM cells. Nature of the data set: CellTiter 96 cell proliferation assay (chemosensitivity), 48 h. In kind it is cell-based. How it is done:
(§2) The chemosensitivity of suspension cells lines (e.g., CEM or CEM-derivatives) is assessed using the CellTiter 96 ? proliferation assay. […] Adherent cell lines (e.g., DU145 or DU145^R) are seeded (^˜10^5 cells) in triplicate dishes, 24 h before drug exposure. Growth inhibition is determined by trypsinization and counting cells electronically.

Data set [7] deals with CEM/ARAC8C cells. The data set is described as above. In kind it is cell-based. How it is done: as §2
Data set [8] deals with CEM/dCK cells. The data set is described as above. In kind it is cell-based. Particulars: read-out: EC50 (50% of the dose response curve), 48 h exposure. How it is done:
as §2

The subject of data set [9] is CEM/dCK-. In words: MTT or WST-1 assay at 72 hr (24 hr drug exposure, wash, 48 hr). In kind it is cell-based. As for the experimental part:
as §1

Data set [10] deals with CCRF-CEM. Described as above. In kind it is cell-based. Particulars: Homo sapiens, CCRF-CEM, read-out: IC50 CCRF-CEM 24 h, Average, MMT or WST-1 at 72 hr, Average of the experiments. As for the experimental part: as §1
Data set [11] concerns MCF-7. In words: 3H-TdR (3H-thymidine) incorporation assay at 72 hr. In kind it is cell-based, Human.
For data set [12], the system named is CEM/dCK-. Nature of the data set: 3H-TdR (3H-thymidine) incorporation assay at 72 hr. In kind it is cell-based. How it is done:
(§3) Table of IC50 Values (μM) for Controls
(§4) Exposition of 24 hr to drug, wash, incubated for another 48 hr (total of 72 hr assay)
(§5) (3H-Thymidine Incorporation Assay)

The subject of data set [13] is CCRF-CEM. In words: 3H-TdR (3H-thymidine) incorporation assay at 72 hr. In kind it is cell-based. How it is done: as §3, §4, §5
The target of data set [14] is T1, hENT1 (Homo sapiens, UniProt Q99808).
T1 sequence (Q99808 1-456): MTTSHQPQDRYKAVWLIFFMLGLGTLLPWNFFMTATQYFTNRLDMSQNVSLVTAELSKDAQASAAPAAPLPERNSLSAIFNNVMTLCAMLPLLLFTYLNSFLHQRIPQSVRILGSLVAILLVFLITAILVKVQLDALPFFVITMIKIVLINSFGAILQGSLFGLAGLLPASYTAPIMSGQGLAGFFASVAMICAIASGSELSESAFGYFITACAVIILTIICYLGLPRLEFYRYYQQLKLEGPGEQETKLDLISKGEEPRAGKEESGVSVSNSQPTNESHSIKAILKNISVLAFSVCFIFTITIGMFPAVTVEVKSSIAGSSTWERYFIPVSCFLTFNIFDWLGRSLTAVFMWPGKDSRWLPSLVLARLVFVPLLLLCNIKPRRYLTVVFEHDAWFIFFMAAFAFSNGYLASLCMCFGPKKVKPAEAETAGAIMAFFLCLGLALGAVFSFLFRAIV
Nature of the data set: Cellular uptake assay of [3H]nucleoside in DU145 cells, with or without NBMPR or excess non-radioactive troxacitabine. In kind it is in vitro ADME. Details: The presence of functional es-mediated transport (hENT1) in DU145 cells; endogenous in cells; host or cells: DU145 cells. Particulars: DU-145, 10 μM, 6-min time course, read-out: inhibition of total [3H]uridine uptake in the presence of NBMPR. How it is done:
Cancer Res., 56: 4187-4191.
This experiment is designed to show whether [^3H]L-troxacitabine (10 μM) is taken up by DU145 cells and if the rate of uptake is affected by the addition of high concentrations (1 mM) of non-radioactive troxacitabine.

For data set [15], the system named is CEM/ARAC8C cells. Nature of the data set: Cellular uptake assay of [3H]nucleoside in nucleoside-transport deficient CEM/ARAC8C cells. In kind it is in vitro ADME. How it is done:
FIG. 1 Comparative uptake of 30 μM [^3H]-troxacitabine in CEM (Panel A) and CEM/ARAC8C (Panel B) cells. [^3H]-Uridine uptake in either the presence or absence of the hENT1 inhibitor, NBMPR or 5 mM non-radioactive uridine was included for comparison as a control substrate.

Molecules are shown by their SMILES. Where “and” joins values, the source holds several entries; their conditions need not be identical. Equal values may be shown once.

With `Nc1ccn([C@@H]2O[C@H](CO)[C@@H](O)C2(F)F)c(=O)n1` [Gemcitabine, gemcitabine, reference compound], the IC50 in [1] (Homo sapiens, NCI-H460, read-out: IC50 H-460 24 h, Average, MTT at 72 hr, Average of the experiments) was 72 ± 100 nM; in data set [1] (read-out: IC50 H-460 24 h, MTT at 72 hr, 24 h exposure, single experiment), 12 nM and 86 nM; in [2], 78 nM; in data set [3], 180 ± 250 nM; in [4] (Homo sapiens, NCI-H460, 24 h, read-out: IC50 H-460 24 h, Average, Average ± spread of the repeat determinations, 24 h exposure), 11 nM; in data set [4] (read-out: IC50 H-460 24 h, 24 h drug exposure, wash, another 48 hr, 3H-TdR incorporation at 72 hr), 9.1 nM and 10 nM and 8.3 nM. Moreover, the IC50 in [5] (Homo sapiens, SF-268, 24 h, read-out: IC50 SF-268 24 h, Average, Average ± spread of the repeat determinations, 24 h exposure) was 8.6 nM; in [5] (read-out: IC50 SF-268 24 h, 24 h drug exposure, wash, another 48 hr, 3H-TdR incorporation at 72 hr), 4.5 nM and 10 nM and 9.4 nM; in data set [9] (read-out: IC50 CEM/dCK- 24 h, Average, MMT or WST-1 at 72 hr, Average of the experiments), 57000 ± 39000 nM; in data set [10], 20 ± 23 nM; in data set [11] (Homo sapiens, MCF7, 24 h, read-out: IC50 MCF-7 24 h, Average, Average ± spread of the repeat determinations, 24 h exposure), 6.8 nM; in [11] (read-out: IC50 MCF-7 24 h, 24 h drug exposure, wash, another 48 hr, 3H-TdR incorporation at 72 hr), 8.7 nM and 10 nM. For the same compound, the IC50 in [12] (24 h, read-out: IC50 CEM/dCK- 24 h, Average, Average ± spread of the repeat determinations, 24 h exposure) is 66000 ± 24000 nM; in data set [12] (read-out: IC50 CEM/dCK- 24 h, 24 h drug exposure, wash, another 48 hr, deoxycytidine kinase-deficient CCRF-CEM), 51000 nM and 41000 nM and 30000 nM; in [13] (Homo sapiens, CCRF-CEM, 24 h, read-out: IC50 CCRF-CEM 24 h, Average, Average ± spread of the repeat determinations, 24 h exposure), 8.4 nM; in [13] (read-out: IC50 CCRF-CEM 24 h, 24 h drug exposure, wash, another 48 hr, 3H-TdR incorporation at 72 hr), 10 nM and 9.2 nM. The EC50 (commonly the midpoint of the concentration-response curve) in data set [6] (Homo sapiens, CCRF-CEM, read-out: EC50 (50% of the dose response curve), CEM cells, 48 h exposure) was 20 nM; in data set [7] (read-out: EC50 (50% of the dose response curve), CEM/ARAC8C cells, 48 h exposure) it was 8630 nM; in data set [8] it was above 50000 nM. The “effect of the es transport inhibitor NBMPR on resistance of CEM cells” value in [6] (presence of NBMPR) was “increased resistance”. The “level of resistance of nucleoside-transport deficient CEM/ARAC8C cells” value in data set [7] (CEM/ARAC8C compared to CEM) worked out at 431 fold. Further, the “Resistance Factor*, Average” value in [9] (CEM/dCK- versus CCRF-CEM, Average of the experiments) amounted to 3987 ± 3871. Moreover, the “Factor* (Resistance Factor), Average” value in data set [12] (Average ± spread of the ratios dCK- on wild-type CCRF-CEM) is reported as 8618 ± 3614.

Regarding `O=c1ccn([C@@H]2O[C@H](CO)[C@@H](O)[C@H]2O)c(=O)[nH]1` [uridine], the inhibition – broadly, the drop in the measured response relative to a control, in per cent – at 10 µM in data set [14] is around 75%. The “uptake of [3H]nucleoside over the 6-min time course” value in data set [15] was “Lack of [^3H]uridine uptake”.
